Measurements as given in article PMC4900566, “Pharmacokinetic-Pharmacodynamic Analysis on Inflammation Rat Model after Oral Administration of Huang Lian Jie Du Decoction” (PLoS ONE, 2016).
Like-named read-outs stand apart in the source and are kept apart here.

Assay: Pharmacokinetics of HLJDD components in rat plasma after oral administration of HLJDD (LC-QqQ-MS, non-compartmental)
Format: in vivo, Sprague-Dawley rats
Settings: oral HLJDD extract; for AUC%Extrap / AUMClast / Cmax1 / Cmax2 / HLλz / Tmax1 / Tmax2 / AUC(0-inf) / AUC(0-t) / MRT last / CL/F / Vd/F / AUCinf / AUClast / MRTlast / Vz/F: crude material 3.5 g/kg, plasma, n = 6; for mean AUClast, fold larger in the inflamed group than in the control group: inflamed vs normal rats; for Vd/F: read-out: Vz/F
Procedure: The rats were acclimatized to the facilities for 5 days and screened via the continuous determination of the rectal temperature for two days. […] The control group G1 was injected with the same volume of physiological saline. The ethics committees of Cisco North Biotechnology Co., Ltd. (Beijing, China) and the China Academy of Chinese Medical Sciences (Beijing, China) approved the experimental protocol.
For the PK-PD analysis, cannulas were implanted in each rat’s jugular vein (n = 22). To study the hepatic first-pass effect (HFPE), the jugular vein and the pyloric vein of each rat (n = 5) were cannulated according to the method described by Hye J. Chung et al. with slight modifications. Instead of the portal vein, the pyloric vein was cannulated to minimize the interference of blood flow in the portal vein [41]. The surgery was performed under anesthesia (3% chloral hydrate solution, intraperitoneal injection; 3.5 mL/kg) 5 days prior to the experiment. Rats with jugular vein intubation surgery were divided into four groups: a control group with HLJDD (G1, n = 6), aninflammatory group with HLJDD (G2, n = 6), aninflammatory group with physiological saline (G3, n = 5) and another inflammatory group with HLJDD (G4, n = 5). G1 and G2 were used for the pharmacokinetic study, while G3 and G4 were used for the pharmacodynamic study. Rats with jugular and pyloric vein cannulation for HFPE analysis were assigned to another inflammatory group with HLJDD (G5, n = 5).
The prepared HLJDD-EP solution was administered to the rats (G1, G2, G4 and G5) at 2 mL/100g body weight (crude material content: 3.5 g/kg) by oral gavage, and the G3 group was given the same volume of physiological saline. […] The rectal temperature of rats in the G3 and G4 groups was immediately monitored after each collection of blood. […] Samples were collected in heparinized Eppendorf tubes and centrifuged at 3000 rpm for 15 min. The plasma was stored at -80°C until assay.
The supernatant was dried with nitrogen at 40°C. The residue was re-dissolved in 100 μL of methanol and centrifuged at 15000 rpm for 10 min.
Liquid chromatographic separations of the analytes were performed using a Thermo Scientific Hypersil GOLD column (50 mm× 2.1 mm, 1.9 μm). The mobile phase consisted of acetonitrile (solvent A) and 0.1% formic acid in water (solvent B). […] The flow rate was 0.3 mL/min. The injection volume was 2 μL. […] The optimized ESI source parameters were as follows: gas temperature, 200°C; gas flow, 14 L/min; nebulizer pressure, 20 psi; sheath gas temperature, 400°C; and sheath gas flow, 11 L/min. Analytes were quantitated by monitoring the precursor-product combination in the DMRM mode using ion polarity switching (flavonoids and alkaloids were determined in the positive mode, while iridoids were detected in the negative mode). To ensure the desired abundance of each compound, the CE values and other parameters were optimized and illustrated as follows: cycle time, 300 ms; positive capillary voltage, 3000 v; negative capillary voltage, 2000 v; positive nozzle voltage, 1500 v; negative nozzle voltage, 1000 v; Delta EMV(+), 200 v; Delta EMV(-), 200 v. The optimized mass transition ion pairs (m/z) for analytes and the detection of the conditions of the compounds are shown in S1 Table.
Pharmacokinetic parameters of the determined compounds were processed by the non-compartmental method using Phoenix Winnonlin software (Pharsight Corporation, USA). Linear trapezoidal integration was used to calculate areas under the concentration-time curves (AUC) and areas under the first moment curves (AUMC). The mean residence time (MRT) was determined as AUMC/AUC. The plasma half-life (HLλz), maximum plasma concentration (Cmax), the time to reach Cmax (Tmax) and other parameters following the administration of HLJDD were determined from the observed data. The HFPE was defined as HCR: HCR% = 100×(AUC0−t in the pyloric vein-AUC0−t in the jugular vein)/AUC0−t in the pyloric vein.

[1] = male, Sprague-Dawley, rat, po, 3.5 g/kg, inflamed rats (group M)
[2] = male, Sprague-Dawley, rat, po, 3.5 g/kg, inflamed rats (group M), read-out: CL/F (converted)
[3] = male, Sprague-Dawley, rat, po, 3.5 g/kg, normal rats (group B)
[4] = male, Sprague-Dawley, rat, in vivo, po, 3.5 g/kg, inflamed rats (group M)
[5] = male, Sprague-Dawley, rat, in vivo, po, 3.5 g/kg, normal rats (group B)

Row | Cmax2 (inflamed rats (group M)) [ng/mL] | Tmax2 (inflamed rats (group M)) [h] | AUC(0-inf) [1] [ng·h/mL] | AUC(0-t) [1] [ng·h/mL] | MRT last [1] [h] | AUC(0-inf) [3] [ng·h/mL] | AUC(0-t) [3] [ng·h/mL] | Cmax2 (normal rats (group B)) [ng/mL] | Tmax2 (normal rats (group B)) [h] | Structure (SMILES) | AUC%Extrap (inflamed rats (group M)) [%] | AUMClast (inflamed rats (group M)) [h*h*ng/ml] | Cmax1 (inflamed rats (group M)) [ng/mL] | HLλz (inflamed rats (group M)) [h] | Tmax1 (inflamed rats (group M)) [h] | mean AUClast, fold larger in the inflamed group than in the control group [fold] | AUC%Extrap (normal rats (group B)) [%] | AUMClast (normal rats (group B)) [h*h*ng/ml] | Cmax1 (normal rats (group B)) [ng/mL] | HLλz (normal rats (group B)) [h] | Tmax1 (normal rats (group B)) [h] | also measured
1 | 0.3 ± 0.3 | 10.8 ± 2.7 | 3.4 ± 0.7 | 2.7 ± 0.8 | 8.4 ± 3.1 | 1.8 ± 0.6 | 1.3 ± 0.5 | 0.1 ± 0.03 | 8.0 ± 2.2 | COc1ccc2cc3[n+](cc2c1OC)CCc1cc2c(cc1-3)OCO2 [berberine] | 10.7±7.0 | 22.6±8.6 | 0.5 ± 0.2 | 9.1 ± 2.5 | 1.0 ± 0.6 | 2.1 | 25.9±15.5 | 8.9±8.6 | 0.4 ± 0.1 | 6.3 ± 3.5 | 0.6 ± 0.4 | MRT last [3]: 5.7 ± 3.5 h
2 | – | – | – | – | – | – | – | – | – | COC(=O)C1=CO[C@@H](O[C@@H]2O[C@H](CO)[C@@H](O)[C@H](O)[C@H]2O)[C@@H]2C(CO)=CC[C@H]12 [geniposide] | 8.9±2.9 | 1231.9±677.2 | 223.2 ± 43.7 | 1.6 ± 0.7 | 0.8 ± 0.3 | 2.9 | 11.5±1.5 | 192.5±74.8 | 171.6 ± 70.6 | 0.6 ± 0.3 | 0.7 ± 0.3 | AUC(0-inf) [4]: 696 ± 363 ng·h/mL; AUC(0-t) [4]: 638 ± 323 ng·h/mL; MRT last [4]: 1.9 ± 0.8 h; CL/F (male, Sprague-Dawley, rat, in vivo, po, 3.5 g/kg, inflamed rats (group M), read-out: CL/F (converted)): 3760 mL/min/kg; Vd/F [4]: 372 ± 86.7 L/kg; AUC(0-inf) [5]: 240 ± 82.1 ng·h/mL; AUC(0-t) [5]: 217 ± 86.2 ng·h/mL; MRT last [5]: 0.9 ± 0.1 h; CL/F (male, Sprague-Dawley, rat, in vivo, po, 3.5 g/kg, normal rats (group B), read-out: CL/F (converted)): 6860 mL/min/kg; Vd/F [5]: 235 ± 94.2 L/kg
3 | – | – | – | – | – | – | – | – | – | COc1ccc2c(c1O)-c1c(O)c(OC)cc3c1[C@H](C2)[N+](C)(C)CC3 [magnolflorine] | 17.6±8.0 | 97.9±55.4 | 6.0 ± 1.7 | 4.3 ± 2.2 | 0.6 ± 0.3 | 1.6 | 6.2±2.4 | 29.5±5.8 | 6.5 ± 1.1 | 1.6 ± 0.4 | 0.6 ± 0.2 | AUCinf (inflamed rats (group M)): 29.3 ± 13.8 ng·h/mL; AUClast (inflamed rats (group M)): 24.9 ± 14.6 ng·h/mL; MRTlast (inflamed rats (group M)): 4.1 ± 1.9 h; Vz/F (inflamed rats (group M)): 607.8 ± 396.5 L/kg; AUCinf (normal rats (group B)): 17.0 ± 2.0 ng·h/mL; AUClast (normal rats (group B)): 16.0 ± 2.0 ng·h/mL; CL/F (normal rats (group B)): 2377 ± 265 mL/min/kg; MRTlast (normal rats (group B)): 1.8 ± 0.1 h; Vz/F (normal rats (group B)): 339.5 ± 97.3 L/kg
4 | 65.5 ± 18.2 | 9.6 ± 2.2 | – | – | – | – | – | 85.8 ± 40.3 | 4.0 ± 0.0 | COc1c(O[C@@H]2O[C@H](C(=O)O)[C@@H](O)[C@H](O)[C@H]2O)cc2oc(-c3ccccc3)cc(=O)c2c1O [oroxylin A-7-O-glucuronide] | 46.2±12.3 | 18194.0±6706.5 | 108.7 ± 47.6 | 20.1 ± 6.1 | 0.09 ± 0.03 | – | 10.3±6.8 | 1935.2±487.3 | 106.9 ± 43.8 | 3.2 ± 0.9 | 0.09 ± 0.03 | AUCinf (inflamed rats (group M)): 2157.4 ± 785.0 ng·h/mL; AUClast (inflamed rats (group M)): 1209.8 ± 606.4 ng·h/mL; CL/F (inflamed rats (group M)): 202 ± 70 mL/min/kg; MRTlast (inflamed rats (group M)): 12.5 ± 2.3 h; Vz/F (inflamed rats (group M)): 322.4 ± 22.0 L/kg; AUCinf (normal rats (group B)): 486.8 ± 96.9 ng·h/mL; AUClast (normal rats (group B)): 440.7 ± 106.9 ng·h/mL; CL/F (normal rats (group B)): 845 ± 225 mL/min/kg; MRTlast (normal rats (group B)): 4.4 ± 0.5 h; Vz/F (normal rats (group B)): 247.8 ± 140.4 L/kg
5 | 2.3 ± 0.8 | 7.0 ± 3.0 | 24.6 ± 6.1 | 21.1 ± 4.1 | 16.5 ± 6.2 | 2.4 ± 0.5 | 2.3 ± 0.5 | 0.4 ± 0.1 | 4.0 ± 0.0 | COc1c(O)cc2oc(-c3ccccc3)cc(=O)c2c1O [oroxylin A] | 13.4±8.6 | 365.4±192.9 | 2.5 ± 1.1 | 16.3 ± 8.8 | 0.08 ± 0.0 | – | 5.3±3.4 | 7.1±2.7 | 1.5 ± 0.6 | 1.7 ± 0.9 | 0.08 ± 0.0 | CL/F [2]: 1790 mL/min/kg; Vd/F [1]: 2820 ± 507 L/kg; MRT last [3]: 3 ± 0.6 h; Vd/F [3]: 2500 ± 1080 L/kg

Row | Structure (SMILES) | Cmax2 (inflamed rats (group M)) [ng/mL] | Tmax2 (inflamed rats (group M)) [h] | AUC(0-inf) [1] [ng·h/mL] | AUC(0-t) [1] [ng·h/mL] | MRT last [1] [h] | AUC(0-inf) [3] [ng·h/mL] | AUC(0-t) [3] [ng·h/mL] | Cmax2 (normal rats (group B)) [ng/mL] | Tmax2 (normal rats (group B)) [h] | AUC%Extrap (inflamed rats (group M)) [%] | AUMClast (inflamed rats (group M)) [h*h*ng/ml] | Cmax1 (inflamed rats (group M)) [ng/mL] | HLλz (inflamed rats (group M)) [h] | Tmax1 (inflamed rats (group M)) [h] | mean AUClast, fold larger in the inflamed group than in the control group [fold] | AUC%Extrap (normal rats (group B)) [%] | AUMClast (normal rats (group B)) [h*h*ng/ml] | Cmax1 (normal rats (group B)) [ng/mL] | HLλz (normal rats (group B)) [h] | Tmax1 (normal rats (group B)) [h] | also measured
6 | O=C(O)[C@H]1O[C@@H](Oc2cc3oc(-c4ccccc4)cc(=O)c3c(O)c2O)[C@H](O)[C@@H](O)[C@@H]1O [baicalin] | 1000.4 ± 298.1 | 9.3 ± 2.1 | 16800 ± 9090 | 15700 ± 9300 | 10.1 ± 2.3 | 8130 ± 906 | 7880 ± 775 | 1580.1 ± 202.4 | 4.3 ± 0.8 | 2.7±0.5 | 175077.1±103375.1 | 2420.9 ± 922.5 | 4.7 ± 1.1 | 0.1 ± 0.04 | 2.0 | 2.9±2.3 | 34124.1±4967.9 | 1828.8 ± 737.4 | 1.8 ± 0.4 | 0.09 ± 0.03 | CL/F [2]: 145 mL/min/kg; Vd/F [1]: 58.8 ± 25.2 L/kg; MRT last [3]: 4.3 ± 0.3 h; CL/F (male, Sprague-Dawley, rat, po, 3.5 g/kg, normal rats (group B), read-out: CL/F (converted)): 258 mL/min/kg; Vd/F [3]: 39.6 ± 7.1 L/kg
